For series [1], the system named is NCI-H524 human small cell lung cancer cells. In words: cells. The format is cell-based. Here is the method:
Conjugates of the present invention were assessed in an in vitro assay evaluating inhibition of cell proliferation. NCI-H524 (ATCC) human small cell lung cancer cells were plated in 96 well, V-bottomed plates (Costar) at a concentration of 5,000 cells/well. 24 hours later, cells were treated with either conjugate for 2 hours and further incubated 70 hours, or for octreotide competition experiments, treated with 100 μM octreotide for 30 min, and then treated with conjugate for 2 hours, and further incubated for 70 hours. Conjugate starting dose was 20 μM and three fold serial dilutions were done for a total of ten points. After 2 hours of treatment, cells were spun down, the drug containing media was removed, and fresh complete medium was added and used to resuspend the cells, which were spun again. After removal of the wash media, the cells were resuspended in complete medium, and then transferred into white walled, flat bottomed 96 well plates. […] Proliferation was measured using CellTiter Glo reagent using the standard protocol (Promega) and a Glomax multi+ detection system (Promega). Percent proliferation inhibition was calculated using the following formula: % inhibition=(control−treatment)/control*100. Control is defined as vehicle alone. IC50 curves were generated using the nonlinear regression analysis (four parameter) with GraphPad Prism 6.

Series [2] deals with NCI-H69 SCLC tumors. The experiment in a line: H69 tumor DM-1 levels by LC/MS-MS. It is filed as in vivo, mice. To be noted: 1 mg/kg; 24 hour time point. Here is the method:
To examine the ability of conjugates of the present invention to accumulate in tumors, a murine cancer model was used. All mice were treated in accordance with the OLAW Public Health Service Policy on Human Care and Use of Laboratory Animals and the ILAR Guide for the Care and Use of Laboratory Animals. All in vivo studies were conducted following the protocols approved by the Blend Therapeutics Institutional Animal Care and Use Committee. Animals were inoculated with 2.5×10^6 NCI-H69 SCLC (small cell lung cancer) cells in 1:1 RPMI 1640 (Invitrogen, Carlsbad, Calif.)/Matrigel® (BD Biosciences, San Jose, Calif.) via subcutaneous injection to the right flank. Tumors were allowed to reach an approximate volume of ˜500 mm3. Animals were then randomized into treatment groups of 3 animals per time point and were dosed at 1 mg/kg (10% propylene glycol in water for injection for free conjugates, or 10% sucrose for nanoparticles), or 0.4 mg/kg for DM-1 (10% propylene glycol in water for injection). The 24 hour time point was used as a benchmark across conjugates.
Tumor DM-1 levels were determined by liquid chromatography mass spectrometry (LC/MS-MS). Four volumes of 5 mM 6-maleimidohexanoic acid to 1 part tumor v/w was added and homogenized for about 10-15 seconds with a handheld homogenizer. 10 μL of 500 mM Tris(2-carboxyethyl)phosphine was added to 100 uL of tumor homogenate, mixed well and incubated at room temperature for about 5-15 min. 200-300 uL of acetonitrile was used to precipitate proteins in tumor homogenate, samples were centrifuged for 5 min, and supernatant was injected onto LC/MS-MS system for DM-1 analysis.

Setting [3] is: 2 hours treatment, 70 hours further incubation, read-out: H524 IC50.
The mark [4] stands for this setting: read-out: H524 IC50+ 100 uM octreotide, 100 μM octreotide for 30 min before conjugate.

pIC50: −log10 of the molar value. Like-named read-outs stand apart in the source and are kept apart here. Positions of bridges follow the written chain, without caps; N, C: chain ends. Non-standard residues stand in square brackets, D forms with d. Residues, ends and D or L forms follow the SMILES beside them. *: point of attachment. NH(CH2)2SS(DM1) = COc1cc2cc(c1Cl)N(C)C(=O)C[C@H](OC(=O)[C@H](C)N(C)C(=O)CCSSCCN*)[C@]1(C)O[C@H]1[C@H](C)[C@@H]1C[C@@](O)(NC(=O)O1)[C@H](OC)/C=C/C=C(\C)C2; X1 = COc1cc2cc(c1Cl)N(C)C(=O)C[C@H](OC(=O)[C@H](C)N(C)C(=O)CCS*)[C@]1(C)O[C@H]1[C@H](C)[C@@H]1C[C@@](O)(NC(=O)O1)[C@H](OC)/C=C/C=C(\C)C2; Thr(ol) = C[C@@H](O)[C@H](N)CO

One may read the pIC50 as the negative decadic logarithm of the IC50, by convention in mol/L.

In the case of `COc1cc2cc(c1Cl)N(C)C(=O)C[C@H](OC(=O)[C@H](C)N(C)C(=O)CCSSCCNC(=O)[C@H](Cc1c[nH]c3ccccc13)NC(=O)[C@@H]1CSSC[C@H](NC(=O)[C@H](N)Cc3ccccc3)C(=O)N[C@@H](Cc3ccc(O)cc3)C(=O)N[C@H](Cc3c[nH]c4ccccc34)C(=O)N[C@@H](CCCCN)C(=O)N[C@@H]([C@@H](C)O)C(=O)N1)[C@]1(C)O[C@H]1[C@H](C)[C@@H]1C[C@@](O)(NC(=O)O1)[C@H](OC)/C=C/C=C(\C)C2` [Conjugate 49] (H-[dF]CY[dW]KTCW-{NH(CH2)2SS(DM1)}; disulfide 2-7), the values for the pIC50 in series [1] (setting [3]) and in series [1] (setting [4]) were 7.16 and 6.61, respectively. The matching figures for `COc1cc2cc(c1Cl)N(C)C(=O)C[C@H](OC(=O)[C@H](C)N(C)C(=O)CCSSCCC(=O)NCCOCCOCCOCCNC(=O)[C@@H](NC(=O)[C@@H]1CSSC[C@H](NC(=O)[C@H](N)Cc3ccccc3)C(=O)N[C@@H](Cc3ccc(O)cc3)C(=O)N[C@H](Cc3c[nH]c4ccccc34)C(=O)N[C@@H](CCCCN)C(=O)N[C@@H]([C@@H](C)O)C(=O)N1)[C@@H](C)O)[C@]1(C)O[C@H]1[C@H](C)[C@@H]1C[C@@](O)(NC(=O)O1)[C@H](OC)/C=C/C=C(\C)C2` [Conjugate 47]: 5.67 and 5.90. Take `CCCCN(CCSSCCC(=O)N(C)[C@@H](C)C(=O)O[C@H]1CC(=O)N(C)c2cc(cc(OC)c2Cl)C/C(C)=C/C=C/[C@@H](OC)[C@@]2(O)C[C@H](OC(=O)N2)[C@@H](C)[C@@H]2O[C@@]12C)C(=O)CC[C@H]1C(=O)N[C@@H](Cc2ccc(O)cc2)C(=O)N[C@H](Cc2c[nH]c3ccccc23)C(=O)N[C@@H](CCCCN)C(=O)N[C@@H]([C@@H](C)O)C(=O)N[C@@H](Cc2ccccc2)C(=O)N1C` [Conjugate 22]: in series [2], the “H69 tumor DM-1 levels” value was 145 nM. Take `COc1cc2cc(c1Cl)N(C)C(=O)C[C@H](OC(=O)[C@H](C)N(C)C(=O)CCSC1CC(=O)N(CC3CCC(C(=O)N[C@H](Cc4ccccc4)C(=O)N[C@H]4CSSC[C@@H](C(=O)N[C@H](CO)[C@@H](C)O)NC(=O)[C@H]([C@@H](C)O)NC(=O)[C@H](CCCCN)NC(=O)[C@@H](Cc5c[nH]c6ccccc56)NC(=O)[C@H](Cc5ccccc5)NC4=O)CC3)C1=O)[C@]1(C)O[C@H]1[C@H](C)[C@@H]1C[C@@](O)(NC(=O)O1)[C@H](OC)/C=C/C=C(\C)C2` (single isomer, unassigned) [Conjugate 104]: the pIC50 is 6.55 in series [1] (setting [3]) and 6.15 in series [1] (setting [4]). `COc1cc2cc(c1Cl)N(C)C(=O)C[C@H](OC(=O)[C@H](C)N(C)C(=O)CCSSC[C@H](N)C(=O)N[C@@H](CCCCN)C(=O)N[C@@H](CCCCN)C(=O)N[C@@H](CCCCN)C(=O)N[C@@H](CCCCN)C(=O)N[C@H](Cc1ccccc1)C(=O)N[C@H]1CSSC[C@@H](C(=O)N[C@H](CO)[C@@H](C)O)NC(=O)[C@H]([C@@H](C)O)NC(=O)[C@H](CCCCN)NC(=O)[C@@H](Cc3c[nH]c4ccccc34)NC(=O)[C@H](Cc3ccccc3)NC1=O)[C@]1(C)O[C@H]1[C@H](C)[C@@H]1C[C@@](O)(NC(=O)O1)[C@H](OC)/C=C/C=C(\C)C2` [Conjugate 7] (H-C(X1)KKKK[dF]CF[dW]KTC[Thr(ol)]; disulfide 7-12): in series [1] (setting [3]), the negative-log IC50 (pIC50) was 6.02.

In the case of `CCCCCCCCCCC(CCN[C@H](Cc1ccccc1)C(=O)N[C@H]1CSSC[C@@H](C(=O)N[C@@H](Cc2c[nH]c3ccccc23)C(N)=O)NC(=O)[C@H](C(C)C)NC(=O)[C@H](CCCCN)NC(=O)[C@@H](Cc2c[nH]c3ccccc23)NC(=O)[C@H](Cc2ccc(O)cc2)NC1=O)SSCCC(=O)N(C)[C@@H](C)C(=O)O[C@H]1CC(=O)N(C)c2cc(cc(OC)c2Cl)C/C(C)=C/C=C/[C@@H](OC)[C@@]2(O)C[C@H](OC(=O)N2)[C@@H](C)[C@@H]2O[C@@]12C` (single isomer, unassigned) [Conjugate 102], the pIC50 was 6.47 in series [1] (setting [3]) and 6.24 in series [1] (setting [4]).

As for `COc1cc2cc(c1Cl)N(C)C(=O)C[C@H](OC(=O)[C@H](C)N(C)C(=O)CCSC1CC(=O)N(CC(=O)N[C@H](Cc3ccccc3)C(=O)N[C@H]3CSSC[C@@H](C(=O)N[C@H](CO)[C@@H](C)O)NC(=O)[C@H]([C@@H](C)O)NC(=O)[C@H](CCCCN)NC(=O)[C@@H](Cc4c[nH]c5ccccc45)NC(=O)[C@H](Cc4ccccc4)NC3=O)C1=O)[C@]1(C)O[C@H]1[C@H](C)[C@@H]1C[C@@](O)(NC(=O)O1)[C@H](OC)/C=C/C=C(\C)C2` (single isomer, unassigned) [Conjugate 108], the negative-log IC50 (pIC50) was 7.02 in series [1] (setting [3]) and 5.89 in series [1] (setting [4]).

Take `COc1cc2cc(c1Cl)N(C)C(=O)C[C@H](OC(=O)[C@H](C)N(C)C(=O)CCSC1CC(=O)N(CCCNC(=O)CC[C@H](NC(=O)[C@@H]3CSSC[C@H](NC(=O)[C@H](N)Cc4ccccc4)C(=O)N[C@@H](Cc4ccc(O)cc4)C(=O)N[C@H](Cc4c[nH]c5ccccc45)C(=O)N[C@@H](CCCCN)C(=O)N[C@@H]([C@@H](C)O)C(=O)N3)C(=O)NCCCN3C(=O)CC(SCCC(=O)N(C)[C@@H](C)C(=O)O[C@H]4CC(=O)N(C)c5cc(cc(OC)c5Cl)C/C(C)=C/C=C/[C@@H](OC)[C@@]5(O)C[C@H](OC(=O)N5)[C@@H](C)[C@@H]5O[C@@]45C)C3=O)C1=O)[C@]1(C)O[C@H]1[C@H](C)[C@@H]1C[C@@](O)(NC(=O)O1)[C@H](OC)/C=C/C=C(\C)C2` (single isomer, unassigned) [Conjugate 53]: the negative-log IC50 (pIC50) in series [1] (setting [3]) is 7.38; in series [1] (setting [4]), 6.76.

`COc1cc2cc(c1Cl)N(C)C(=O)C[C@H](OC(=O)[C@H](C)N(C)C(=O)CCSSCCC(=O)NCCOCCOCCOCCOCCOCCOCCOCCOCCC(=O)N[C@H](Cc1ccccc1)C(=O)N[C@H]1CSSC[C@@H](C(=O)N[C@H](CO)[C@@H](C)O)NC(=O)[C@H]([C@@H](C)O)NC(=O)[C@H](CCCCN)NC(=O)[C@@H](Cc3c[nH]c4ccccc34)NC(=O)[C@H](Cc3ccccc3)NC1=O)[C@]1(C)O[C@H]1[C@H](C)[C@@H]1C[C@@](O)(NC(=O)O1)[C@H](OC)/C=C/C=C(\C)C2` [Conjugate 6]: in series [1] (setting [3]), the negative-log IC50 (pIC50) was 6.63.

Take `COc1cc2cc(c1Cl)N(C)C(=O)C[C@H](OC(=O)[C@H](C)N(C)C(=O)CCSSCCNC(=O)N[C@H](Cc1ccccc1)C(=O)N[C@H]1CSSC[C@@H](C(=O)N[C@H](CO)[C@@H](C)O)NC(=O)[C@H]([C@@H](C)O)NC(=O)[C@H](CCCCN)NC(=O)[C@@H](Cc3c[nH]c4ccccc34)NC(=O)[C@H](Cc3ccccc3)NC1=O)[C@]1(C)O[C@H]1[C@H](C)[C@@H]1C[C@@](O)(NC(=O)O1)[C@H](OC)/C=C/C=C(\C)C2` [Conjugate 84]: the figures for the negative logarithm of the IC50 (pIC50) in series [1] (setting [3]) and in series [1] (setting [4]) were 7.12 and 6.51, respectively. Regarding `COc1cc2cc(c1Cl)N(C)C(=O)C[C@H](OC(=O)C(C)N(C)C(=O)CCSSCC(=O)NCCNC(=O)CC[C@H]1C(=O)N[C@@H](Cc3ccc(O)cc3)C(=O)N[C@H](Cc3c[nH]c4ccccc34)C(=O)N[C@@H](CCCCN)C(=O)N[C@@H]([C@@H](C)O)C(=O)N[C@@H](Cc3ccccc3)C(=O)N1C)[C@]1(C)O[C@H]1[C@H](C)[C@@H]1C[C@@](O)(NC(=O)O1)[C@H](OC)/C=C/C=C(\C)C2` (some centres unmarked) [Conjugate 30], the pIC50 was 6.33 in series [1] (setting [3]) and 5.70 in series [1] (setting [4]). The matching figures for `COc1cc2cc(c1Cl)N(C)C(=O)C[C@H](OC(=O)[C@H](C)N(C)C(=O)CCSSCCC(=O)N[C@H](Cc1ccccc1)C(=O)N[C@H]1CSSC[C@@H](C(=O)N[C@H](CO)[C@@H](C)O)NC(=O)[C@H]([C@@H](C)O)NC(=O)[C@H](CCCCN)NC(=O)[C@@H](Cc3c[nH]c4ccccc34)NC(=O)[C@H](Cc3ccccc3)NC1=O)[C@]1(C)O[C@H]1[C@H](C)[C@@H]1C[C@@](O)(NC(=O)O1)[C@H](OC)/C=C/C=C(\C)C2` [Conjugate 4]: 6.44 and 6.07. The like results for `COc1cc2cc(c1Cl)N(C)C(=O)C[C@H](OC(=O)[C@H](C)N(C)C(=O)CCSSC(C)CCN[C@H](Cc1ccccc1)C(=O)N[C@H]1CSSC[C@@H](C(=O)N[C@H](CO)[C@@H](C)O)NC(=O)[C@H]([C@@H](C)O)NC(=O)[C@H](CCCCN)NC(=O)[C@@H](Cc3c[nH]c4ccccc34)NC(=O)[C@H](Cc3ccccc3)NC1=O)[C@]1(C)O[C@H]1[C@H](C)[C@@H]1C[C@@](O)(NC(=O)O1)[C@H](OC)/C=C/C=C(\C)C2` (single isomer, unassigned) [Conjugate 82] were, in that order, 6.83 and 6.06.

These data come from US11160871B2, “SSTR-targeted conjugates and particles and formulations thereof” (TARVEDA THERAPEUTICS, INC., priority 2015, dated 2021).
